These results are taken from patent US6417174B1, “Inhibitors of β-lactamases and uses therefor” (Northwestern University, priority 1997, dated 2002).

Where two headings read alike, the source gives them in different places.

For test [1], the target named is T1, TEM-1 β-lactamase from E. coli (Escherichia coli, UniProt P62593).
T1 construct: gift: Natalie Strynadka, University of Alberta
Nature of the test: Inhibition of TEM-1 β-lactamase, spectrophotometric assay (FAP substrate). The format is biochemical.

Test [2] addresses AmpC β-lactamase from E. coli (Escherichia coli, UniProt P00811). Nature of the test: biochemical. The format is biochemical.
Test [3] relates to β-lactamase derepressed strain of Enterobacter cloacae (Ent-Der). Put plainly: microbe, parasite or virus in culture. The format is cell-based. As to conditions: for MIC of ceftazidime plus inhibitor: Table 3A, proportion 4/1, given as CAZ/inhibitor; for MIC of ceftazidime plus inhibitor / MIC of inhibitor used alone without ceftazidime: Ent. Der.; for MIC of inhibitor used alone without ceftazidime: Table 3B. On the procedure: (§1) After incubation, the growth of the cells was visually inspected. The minimum inhibitory concentration (MIC) is the lowest concentration where there no cell growth was observed.
(§2) The following strains were used: Enterobacter cloacae cell line with derepressed β-lactamase production (Ent-Der), and Escherichia coli RYC1000 (araD139 D lacU169 rpsL D rib7 thiA gyrA recA56) cell lines, harboring the plasmid pBGS19 (with no β-lactamase), or the β-lactamase containing plasmids pBGAmpC (AmpC β-lactamase from E. coli; Eco-AmpC), or pBGAmpC-MHN (AmpC β-lactamase from Enterobacter cloacae; Eco-AmpCEnt). […] TEM-10 and TEM-24 differ from TEM-1 due to the following point substitutions: TEM-10 (R164S, E240K); TEM-24 (L102K, L162S, S235T, A237K). TEM-10 and TEM-24 also differ from TEM-1 in being extended spectrum enzymes (i.e., they react with a greater range of substrates than TEM-1). Also tested were clinical isolates of Pseudomonas aeruginosa. All bacterial strains and plasmids are available from Jesus Blazquez and Fernando Baquero, Servicio de Microbiologia, Hospital Ramon y Cajal, National Institute of Health, Madrid, Spain.
(§3) Several ratios, including 1:1, 2:1, 4:1, and 1:3, of β-lactam antibiotic (amoxicillin (AX) or ceftazidime (CAZ)) to boronic acid compound were used in the assays. Tazobactam (TAZO), a clinically used β-lactamase inibitor, was used as a positive control.

Test [4] relates to E. coli RYC1000 harboring plasmid pBGTEM-24 (TEM-24 β-lactamase). Nature of the test: microbe, parasite or virus in culture. It counts as cell-based, Escherichia coli. The conditions noted are these: for MIC of ceftazidime plus inhibitor: Table 3A, proportion 4/1, given as CAZ/inhibitor; for MIC of inhibitor used alone without ceftazidime: Table 3B. The method, then:
as §1, §2, §3

The test system of test [5] is E. coli RYC1000 harboring plasmid pBGAmpC-MHN (AmpC β-lactamase of Enterobacter cloacae). Nature of the test: microbe, parasite or virus in culture. It counts as cell-based, Escherichia coli. The conditions noted are these: for MIC of ceftazidime plus inhibitor: Table 3A, proportion 4/1, given as CAZ/inhibitor; for MIC of ceftazidime plus inhibitor / MIC of inhibitor used alone without ceftazidime: AmpC-MHN; for MIC of inhibitor used alone without ceftazidime: Table 3B. On the procedure:
as §1, §2, §3

Test [6] concerns E. coli RYC1000 harboring plasmid pBGS19 (no β-lactamase). Put plainly: microbe, parasite or virus in culture. It counts as cell-based, Escherichia coli. As to conditions: for MIC of ceftazidime plus inhibitor: Table 3A, proportion 4/1; for MIC of ceftazidime plus inhibitor / MIC of inhibitor used alone without ceftazidime: pBGS19; for MIC of inhibitor used alone without ceftazidime: Table 3B. On the procedure: as §1, §2, §3

The subject of test [7] is E. coli RYC1000 harboring pBGTEM-10 producing TEM-10 β-lactamase (EC-T10). Nature of the test: microbe, parasite or virus in culture. The format is cell-based, Escherichia coli. The method, then: as §1, §2, §3
Test [8] has as its system E. coli RYC1000 harboring pBGTEM-1 producing TEM-1 β-lactamase (EC-T1). Put plainly: microbe, parasite or virus in culture. It counts as cell-based, Escherichia coli. The method, then: as §1, §2, §3
In test [9] the test system is E. coli RYC1000 harboring a plasmid coding for a mutant of AmpC from Enterobacter (ECR-AmpCEnM). Put plainly: microbe, parasite or virus in culture. It counts as cell-based, Escherichia coli. The method, then:
as §1, §2, §3

For test [10], the system named is E. coli RYC1000 harboring pBGAmpC-E. coli producing AmpC (ECR-AmpCEc). Put plainly: microbe, parasite or virus in culture. The format is cell-based, Escherichia coli. On the procedure:
as §1, §2, §3

[11] abbreviates: Tables 2A/2B, pH 7.0, 25° C., 100 μM FAP, N.I. = no inhibition observed at an inhibitor concentration of 100 μM, read-out: Ki E. coli TEM-1.
Setting [12] is: Tables 2A/2B, pH 7.0, 25° C., 100 μM cephalothin, read-out: Ki E. coli AmpC.
Where [13] appears, read: pH 7, read-out: Ki E. coli AmpC.
Setting [14] is: Table 5, as described in Example 2, read-out: Ki AmpC.
Where [15] appears, read: Enterobacter cloacae, read-out: MIC of amoxicillin (AX).
Where [16] appears, read: Escherichia coli, read-out: MIC of amoxicillin (AX).

AmpC β-lactamase from E. coli, sequence (P00811 20-377): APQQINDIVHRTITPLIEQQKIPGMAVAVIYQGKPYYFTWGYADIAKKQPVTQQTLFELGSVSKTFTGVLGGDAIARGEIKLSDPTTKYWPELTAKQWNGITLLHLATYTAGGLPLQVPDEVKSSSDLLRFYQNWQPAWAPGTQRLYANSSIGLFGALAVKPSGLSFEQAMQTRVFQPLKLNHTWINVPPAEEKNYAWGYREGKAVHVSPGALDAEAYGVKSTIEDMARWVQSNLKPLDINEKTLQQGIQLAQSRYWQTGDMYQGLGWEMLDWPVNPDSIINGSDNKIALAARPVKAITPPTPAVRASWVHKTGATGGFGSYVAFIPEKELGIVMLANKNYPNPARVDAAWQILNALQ
T1 sequence (P62593 24-286 limits assumed): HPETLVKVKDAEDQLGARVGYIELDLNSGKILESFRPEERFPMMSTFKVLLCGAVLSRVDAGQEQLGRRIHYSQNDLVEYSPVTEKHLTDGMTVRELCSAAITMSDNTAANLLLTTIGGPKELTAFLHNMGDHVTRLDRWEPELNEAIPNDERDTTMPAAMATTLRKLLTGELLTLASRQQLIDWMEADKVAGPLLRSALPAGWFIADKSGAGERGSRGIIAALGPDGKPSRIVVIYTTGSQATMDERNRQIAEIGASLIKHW

A word on the Ki: it is a measure of affinity in units of concentration, obtained from inhibition or displacement. On to `O=Cc1ccccc1B(O)O` [2FORMB, 2-formylphenylboronate, reference compound], for which the results for the Ki in test [1] (setting [11]) and in test [2] (setting [12]) were over 100 µM and 62 µM, respectively.
Turning to `OB(O)c1ccsc1` [TH3B, thiopene-3-boronic acid], the Ki in test [1] (setting [11]) turned out to be 100 µM; in test [2] (setting [13]), 17 µM; in [2] (read-out: Ki for AmpC), 22.1 ± 3.5 µM.
As to `Oc1ccc(N=Nc2ccc(Br)cc2)cc1B1OB(c2cc(N=Nc3ccc(Br)cc3)ccc2O)OB(c2cc(N=Nc3ccc(Br)cc3)ccc2O)O1` [4BPAPB, 2,4,6-tris(β-(4-bromophenylazo)-2-hydroxyphenyl) boroxin], the Ki in test [1] (setting [11]) was 1.2 µM; in [2] (setting [13]) it was 7.2 µM. Further, the “MIC of ceftazidime plus inhibitor” value in test [3] was 512/128; in test [4], 256/64; in [5] it was 8/2; in [6], under 0.25 µg/mL. For the same compound, the “MIC of inhibitor used alone without ceftazidime” value was over 512 µg/mL in [3], 256 µg/mL in test [4], 256 µg/mL in test [5] and 128 µg/mL in test [6].
For `OB(O)c1cc2ccccc2o1` [BZBF2B, benzo[b]furan-2-boronic acid], the Ki in [1] stood at 8 µM; in [2] (Ki E. coli AmpC), 0.07 µM. For the same compound, the “activity relative to furan-2-boronic acid parent (AmpC)” value in [2] is “about 1000 fold”.
As to `CC(=O)c1ccc(B(O)O)s1` [5ACTH2B, 5-acetylthiophene-2-boronic acid], the Ki in [1] is over 50 µM; in [2] (setting [12]), 1.8 µM.
Turning to `OB(O)c1cc(N=Nc2cccc(C(F)(F)F)c2)ccc1O` [HFAB, 2-hydroxy-5-(3-(trifluoromethyl)phenylazo) benzeneboronic acid], in test [2] (setting [12]), the Ki came to 1.3 µM.
Turning to `OB(O)c1ccc(Cl)s1` [5CLTH2B, 5-chlorothiophene-2-boronic acid], the Ki in [1] came out at 17 µM; in test [2] (setting [12]), 1.4 µM. For the same compound, the “MIC of ceftazidime plus inhibitor” value was 32/8 in test [3], 128/32 in test [4], 4/1 in test [5] and under 0.25 µg/mL in [6]. Further, the “MIC of inhibitor used alone without ceftazidime” value in test [3], in test [4], in test [5] and in [6] was 128 µg/mL throughout.
Take `OB(O)c1ccc(C(F)(F)F)cc1` [4TFMB]: the inhibition constant Ki in test [1] (setting [11]) worked out at 6.3 µM; in [2] (setting [13]), 9 µM.
Turning to `CN1C(=O)/C(=N\Nc2cccc(B(O)O)c2)c2ccccc2C1=O`, the Ki in test [2] (setting [14]) came to 0.075 µM.
Same read-out and setting: to `O=C(O)/C=C/c1ccc(B(O)O)cc1` belongs 4.2 ± 1.1 µM.
`OB(O)c1ccc2ccccc2c1` [2-naphthylboronic acid]: the inhibitory constant (Ki) in test [2] (Example 1, read-out: Ki for AmpC) is 8.5 ± 1.8 µM.
Regarding `OB(O)[C@@H]1CCOC1` [(R)-3-tetrahydrofuranyl-boronic acid], the Ki in test [2] (read-out: Ki for AmpC) was 1.4 ± 0.1 µM.
As to `OB(O)[C@H]1CCOC1` [(S)-3-tetrahydrofuranylboronic acid], the Ki in test [2] (read-out: Ki for AmpC) was 15.8 ± 0.8 µM.
For `O=Cc1ccc(B(O)O)cc1` [4FORMB, 4-formylphenylboronate, reference compound], the Ki was found to be 35 µM in test [1] (setting [11]) and 2.8 µM in test [2] (setting [12]).
As for `CCCCB(O)O` [BUTB, Butylboronic acid], the Ki in test [1] is over 100 µM; in [2] (setting [12]), over 500 µM.
As for `Cc1csc(B(O)O)c1`, in test [2] (setting [14]), the Ki was 0.5 ± 0.05 µM.
With `O=C(O)/C=C/c1cccc(B(O)O)c1`, the Ki in test [2] (setting [14]) is 5.9 ± 0.3 µM.
Take `O=Cc1ccsc1B(O)O` [3FTH2B, 3-formylthiophene-2-boronic acid]: the “Ki E. coli TEM-1” value in [1] (Tables 2A/2B, pH 7.0, 25° C., 100 μM FAP, N.I. = no inhibition observed at an inhibitor concentration of 100 μM) is on record as “N.I”. Further, the Ki in test [2] (setting [12]) came out at 3.5 µM.
As to `OB(O)c1ccc2c(c1)OCO2`, the Ki in test [2] (setting [14]) came out at 53.4 ± 6.1 µM.
Turning to `O=C1OC(=O)c2ccccc2/C1=N/Nc1cccc(B(O)O)c1`, the Ki in test [2] (setting [14]) was 0.075 µM.
In the case of `OB(c1ccccc1)c1ccccc1` [DFB, diphenylboronic acid], the Ki in test [1] (setting [11]) is over 100 µM; in [2] (setting [12]) it was over 500 µM. Further, the “inhibition of AmpC (in words)” value in [2] was “lacks measurable inhibition”.
In the case of `Cc1ccc(B(O)O)cc1` [4MEPB, 4-methylphenylboronate, reference compound], the values for the Ki in test [1] (setting [11]) and in test [2] (setting [13]) were over 100 µM and 5.2 µM, respectively.
With `OB(O)c1cccc2ccccc12` [NAPB], the Ki amounted to 34 µM in test [1] (setting [11]) and 10.4 µM in [2] (setting [12]). Also, the “dissociation constant relative to MAPB (AmpC)” value in [2] (compared with MAPB) was “two to three-fold worse (higher)”.
In the case of `CC1(C)S[C@@H]2[C@H](NC(=O)[C@H](N)c3ccc(O)cc3)C(=O)N2[C@H]1C(=O)O` [AX, amoxicillin, reference compound], the MIC in [3] (setting [15]) was over 2050 µg/mL; in [7] (setting [16]), over 2050 µg/mL; in test [8] (setting [16]), over 2050 µg/mL; in [5] (setting [15]) it was over 2050 µg/mL; in test [9] (Enterobacter, read-out: MIC of amoxicillin (AX)), over 2050 µg/mL; in [10] (setting [16]), over 2050 µg/mL.
As for `OB(O)c1ccc2[nH]ccc2c1`, the Ki in test [2] (setting [14]) stood at 10.9 ± 0.6 µM.
Turning to `OB(O)c1csc2ccccc12`, the Ki in test [2] (read-out: Ki AmpC) was determined as 0.78 ± 0.08 µM.
Consider `OB(O)c1ccc(Br)cc1` [4BPB, 4-bromophenylboronic acid], for which the inhibition constant (Ki) in test [1] was 31.3 µM; in [2] (Ki E. coli AmpC), 2.6 µM.
`OB(O)c1ccccc1` [2FDB, phenylboronic acid, reference compound]: the Ki in test [1] is over 100 µM; in test [2] (setting [12]), 8 µM.
`OB(O)c1ccc(B(O)O)cc1` [B14DA]: the Ki in test [1] (setting [11]) is 40 µM; in test [2] (setting [13]), 6.9 µM.
As to `OB(O)c1cccc(C(F)(F)F)c1` [3TFMB], the inhibition constant Ki in test [1] (setting [11]) is 85 µM; in test [2] (setting [13]), 1.6 µM. Also, the “Ki values (AmpC), range in words” value in test [2] is “one to two”.
`C[C@]1(Cn2ccnn2)[C@H](C(=O)O)N2C(=O)C[C@H]2S1(=O)=O` [TAZO, Tazobactam, reference compound]: the “MIC of ceftazidime plus inhibitor” value in test [3] was 32/8; in test [4], 8/2; in [5], 4/1; in test [6], under 0.25 µg/mL. Besides, the “MIC of amoxicillin plus inhibitor” value in test [3] (Table 4A, Ent-Der., proportion 4/1) came to 128 µg/mL; in test [7] (Table 4A, EC-T10, proportion 4/1) it was 4 µg/mL; in test [8] (Table 4A, EC-T1, proportion 4/1), 8 µg/mL; in test [5] (Table 4A, EC-AmpCEn, proportion 4/1), 16 µg/mL; in test [9] (Table 4A, ECR-AmpCEnM, proportion 4/1), 16 µg/mL; in test [10] (Table 4A, ECR-AmpCEc, proportion 4/1) it was 32 µg/mL. Besides, the “MIC of inhibitor used alone without amoxicillin” value in [3] (Table 4B, Ent-Der., not tested above 128 μg/ml, “256” indicates no inhibition of cell growth) was 256 µg/mL; in test [7] (Table 4B, EC-T10, not tested above 128 μg/ml, “256” indicates no inhibition of cell growth), 64 µg/mL; in [8] (Table 4B, EC-T1, not tested above 128 μg/ml, “256” indicates no inhibition of cell growth) it was 32 µg/mL; in test [5] (Table 4B, ECAmpCEn, not tested above 128 μg/ml, “256” indicates no inhibition of cell growth) it was 64 µg/mL; in [9] (Table 4B, ECRAmpCEnM, not tested above 128 μg/ml, “256” indicates no inhibition of cell growth), 64 µg/mL; in test [10] (Table 4B, ECR-AmpCEc, not tested above 128 μg/ml, “256” indicates no inhibition of cell growth), 64 µg/mL. The “MIC of inhibitor used alone without amoxicillin” value in [6] (Table 4B, EC, not tested above 128 μg/ml, “256” indicates no inhibition of cell growth) came out at 32 µg/mL.
